Results taken from patent US12383505B2, “Nanoparticle for the remodeling of cancer-associated fibroblasts” (University of South Carolina, priority 2021, dated 2025).

Legend:
4T1 cells = assay: DOX induced EMT, immunocytochemistry of E-cadherin; type: cell-based, murine; details: 0.05 μM of free DOX for 48 hours
Source text: (§1) Anthracycline-containing regimens are predominantly used in neoadjuvant chemotherapy for breast cancer. See, J. Wang, T. A. Buchholz, L. P. Middleton, D. C. Allred, S. L. Tucker, H. M. Kuerer, F. J. Esteva, G. N. Hortobagyi, A. A. Sahin, Cancer 2002, 94, 3107; M. S. van Ramshorst, A. van der Voort, E. D. van Werkhoven, I. A. Mandjes, I. Kemper, V. O. Dezentjé, I. M. Oving, A. H. Honkoop, L. W. Tick, A. J. van de Wouw, The Lancet Oncology 2018. However, only a little benefit was achieved from this neoadjuvant chemotherapy in the majority of patients. […] Chen, Y.-A. Lai, Y.-C. Lin, J.-W. Ma, L.-F. Huang, N.-S. Yang, C.-T. Ho, S.-C. Kuo, T.-D. Way, Journal Of Agricultural And Food Chemistry 2013, 61, 11817; N. Chintalaramulu, R. Vadivelu, N. Nguyen, I. Cock, Inflammopharmacology 2020, especially at lower doses. To investigate the relationship between DOX and the differentiation and transdifferentiation of CAF and the potential effect of T-CeNP in inhibiting DOX-induced metastasis, T-CeNP was added to NIH3T3 and 4T1 cells either before or after receiving DOX treatment. The expression of the CAF related proteins, including α-SMA and fibronectin, and metastasis-associated E-cadherin were evaluated by immunocytochemistry. […] The quantitative comparison of their corresponding fluorescence intensities further verified these trends. […]

NIH3T3 cells = assay: DOX induced CAF differentiation, immunocytochemistry of α-SMA and fibronectin; type: cell-based, mouse; details: 0.05 μM of free DOX for 48 hours
Source text: as §1

4T1-luc orthotopic tumor = assay: Neoadjuvant chemotherapy in orthotopic breast cancer model: primary tumor; type: in vivo, BALB/c mice; details: i.v., CeNP 1 mg/kg, DOX 3 mg/kg, every 3 days for 4 times
Protocol: (§2) The 4T1 orthotopic model was established following our previous method with a minor modification. All animal experiments were conducted in accordance with NIH regulations and approved by the Institutional Animal Care and Use Committee of the University of South Carolina. 4T1/Luc2 cells (2×10^5 in 20 μl PBS) were injected into the right 4th mammary fat pad of 6-8 weeks female BALB/c mice, and the primary tumor growth was monitored through bioluminescence signal using IVIS imaging system. Two weeks post tumor cell inoculation, the mice were randomly divided into 6 groups (n=10), including control, T-CeNP, T-DOX, free DOX, T-CeNP+T-DOX, and T-CeNP+ Free DOX, and received corresponding neoadjuvant chemotherapy, surgery, and postoperative chemotherapy. In brief, for neoadjuvant chemotherapy, the drugs were intravenously injected at a CeNP dosage of 1 mg/kg and DOX dosage of 3 mg/kg every 3 days for 4 times. Specifically, for the groups of
(§3) T-CeNP+T-DOX and T-CeNP+ free DOX, T-CeNP was administrated to mice 2 days prior to T-DOX or Free DOX treatment. Two days after the last dose, all mice underwent complete
surgical removal of the tumors following our previous method. Two days after the surgery, the mice received another 3 times administration of T-CeNP, T-DOX, free DOX, and their combination as post-surgical chemotherapy. […]

[1] = tested on: 4T1-luc lung and liver metastasis; assay: Post-surgery lung and liver metastasis in orthotopic breast cancer model; type: in vivo, BALB/c mice
Protocol: as §2, §3
surgical removal of the tumors following our previous method. Two days after the surgery, the mice received another 3 times administration of T-CeNP, T-DOX, free DOX, and their combination as post-surgical chemotherapy. At the end of the study (day 24), the mice were sacrificed, and the lung and liver were harvested for ex vivo bioluminescence imaging to examine the metastasis.
The harvested tumors and major organs were fixed with 4% paraformaldehyde and processed by paraffin sectioning and frozen sectioning. Tissue sections (heart, liver, spleen, and kidney) and lung sections were hematoxylin and eosin (H&E) stained for acute toxicity evaluation and lung metastasis evaluation. […] All the immunofluorescence images were recorded with a fluorescence microscope (Evos™ FL, ThermoFisher Scientific, MA, USA).

[2] = ex vivo bioluminescence imaging, day 24

COc1cccc2c1C(=O)c1c(O)c3c(c(O)c1C2=O)C[C@@](O)(C(=O)CO)C[C@@H]3O[C@H]1C[C@H](N)[C@H](O)[C@H](C)O1 [free DOX, doxorubicin]
E-cadherin expression (4T1 cells): declined E-cadherin expression
level of α-SMA and fibronectin (NIH3T3 cells): boosted level of α-SMA and fibronectin
primary tumor size (4T1-luc orthotopic tumor): only slightly reduced the size of the primary tumor
liver metastasis [1, 2]: inductive effect
lung metastasis occurrence [1, 2]: developed lung metastasis
lung metastasis nodules ([1]; nodules on the surface of lung): induced more metastasis nods in the lung
